Columns and labels:
[1] = test system: tumor cells, normal cells, cells of epithelial or immune origin; conditions: cited from earlier work
[2] = test system: MDA-MB-435 human breast cancer cells; assay: Apoptosis (DAPI staining) of TAP siRNA transfected MDA-MB-435 cells treated with tocopherol-based compounds; type: cell-based; conditions: TAP siRNA for 6 days, then compound for 2 days (α-TEA 20 μg/ml, VES 20 μg/ml, δT3 5 μg/ml)
Procedure: MDA-MD-435 cells at 13.5×10^6/55 cm^2 cell culture dish (100 mm×20 mm; catalog # 430293, Corning Inc., Corning, N.Y.) were transiently transfected with in vitro transcribed TAP siRNA (Silencer siRNA Construction Kit, Ambion) using siPORT Lipid following company instructions (catalog # 4505, Ambion, Austin, Tex.). Cells were incubated overnight in culture media, then washed two times with non-supplemented regular MEM media. Next, the cells were incubated overnight in the presence of siRNA/siPORT Lipid [[…]/16 μl or 16 μl siPORT lipid only (as control)] in 5 ml of serum free media (OPTI-MEMI, catalog # 31985–070, Gibco). SiRNA/siPORT Lipid complex was generated by two steps: 1) 16 μl of siPORT lipid was incubated with 60 μl of OPTI-MEMI media for 30 minutes at room temperature; and 2) 60 μl of siPORT Lipid in OPTI-MEMI was then incubated for 20 minutes with 500 μl of diluted TAP siRNA [or 500 μl media as control (5 μl of 10 μl TAP siRNA in 500 μl of OPTI-MEMI media)]. The transfected cells were then split into 12 wells at 1.5×10^5 cells/well for apoptosis and 55 cm^2 dish at 3.5×10^6 cells/dish for Western immunoblot analyses.
The cells in 55 cm^2 dishes were incubated for 8 hours with culture media followed by treatment with 20 μg/ml of α-TEA in 2% serum treatment media for 15 hours. Cells were collected and fractionated, and the lysates were analyzed for TAP protein levels by Western immunoblotting (FIG. 13A). The cells plated in 12-well plates were incubated overnight in culture media followed by treatment with 20 μg/ml of α-TEA, 20 μg/ml of VES, and 5 μg/ml of RRR-δ-tocotrienol (dt3) and cultured for 2 days. Apoptosis was evaluated by DAPI staining (FIG. 13B).
For example, cells transiently transfected with TAP siRNA for 6 days and then treated with α-TEA, VES, or δT3 were inhibited from induction of apoptosis by approximately 60% in comparison to control cells cultured with the three compounds for two days.

MDA-MB-435 cells [3] = assay: Apoptosis (nuclear condensation and fragmentation) of MDA-MB-435 cells transfected with antisense oligomers to TAP; type: cell-based, human; conditions: antisense to N-terminal region of TAP (TAP-38 and TAP-46)
Procedure: Apoptosis was determined by examination of nuclear condensation and fragmentation.
Transient transfection of MDA-MB-435 cells with antisense oligomers to the N-terminal region of TAP (interferes with TAP-38 as well as TAP-46 transcription) blocked the ability of tocopherol compounds, vitamin E succinate and compound #1, to induce apoptosis, showing that TAP-38 and TAP-46 are involved in the ability of vitamin E compounds to inhibit tumor cell growth (FIG. 10).

MDA-MB-435 cells [4] = assay: PARP cleavage and c-Jun phosphorylation in MDA-MB-435 cells transfected with antisense or sense oligomers to TAP; type: cell-based, human
Description: Antisense oligomers to TAP (both TAP-38 and TAP-46), showing that the induction of apoptosis with vitamin E succinate or compound #1 [2,5,7,8-tetramethyl-(2R-(4R,8R,12-trimethyltridecycl) chroman-6-yloxy) acetic acid] to involve tocopherol associated protein.

[5] = test system: MDA-MB-435 human breast cancer cells; assay: Apoptosis of MDA-MB-435 cells transiently transfected with TAP-38 or TAP-46 cDNA and treated with compound; type: cell-based; conditions: 20 micrograms/ml compound
Description: Transient transfection of MDA-MB-435 human breast cancer cells with either TAP-38 or TAP-46 enhanced the ability of tocopherol compound #1 [2,5,7,8-tetramethyl-(2R-(4R,8R,12-trimethyltridecycl) chroman-6-yloxy) acetic acid] to induce apoptosis (FIG. 9).

| SMILES | inhibition of induction of apoptosis by TAP siRNA in comparison to control cells [2] | ability to induce apoptosis in cells transfected with antisense oligomers to TAP, vs sense oligomers (MDA-MB-435 cells [3]) | cleavage of poly ADP-ribose polymerase (PARP) in compound-treated cells with antisense vs sense oligomers to TAP (MDA-MB-435 cells [4]) | phosphorylation of c-Jun in compound-treated cells with antisense vs sense oligomers to TAP (MDA-MB-435 cells [4]) | also measured |
| --- | --- | --- | --- | --- | --- |
| Cc1c(C)c2c(c(C)c1O)CC[C@@](C)(CCC[C@H](C)CCC[C@H](C)CCCC(C)C)O2 [RRR-α-tocopherol] |  |  |  |  | antiproliferative and proapoptotic activity ([1]; cells of epithelial or immune origin): neither antiproliferative nor proapoptotic biological activity |
| Cc1c(C)c2c(c(C)c1OC(=O)CCC(=O)O)CC[C@@](C)(CCC[C@H](C)CCC[C@H](C)CCCC(C)C)O2 [VES, RRR-α-tocopheryl succinate] | approximately 60% | blocked | blocked the cleavage | inhibited the phosphorylation | apoptotic inducing effects on normal cells ([1]; normal cells): no apoptotic inducing effects on normal cells; apoptosis of tumor cells ([1]; tumor cells): induces tumor cells to undergo apoptosis |
| Cc1c(C)c2c(c(C)c1OCC(=O)O)CC[C@@](C)(CCC[C@H](C)CCC[C@H](C)CCCC(C)C)O2 [compound #1, 2,5,7,8-tetramethyl-(2R-(4R,8R,12-trimethyltridecycl)chroman-6-yloxy) acetic acid] |  | blocked | blocked the cleavage | inhibited the phosphorylation | ability to induce apoptosis in cells transfected with either TAP-38 or TAP-46, vs vector control [5]: enhanced |
| Cc1c(C)c2c(c(C)c1OCC(=O)O)CC[C@@](C)(CCC[C@H](C)CCC[C@H](C)CCCC(C)C)O2 [α-TEA] | approximately 60% |  |  |  |  |
| CC(C)=CCC/C(C)=C/CC/C(C)=C/CC[C@]1(C)CCc2cc(O)cc(C)c2O1 [δT3, RRR-δ-tocotrienol] | approximately 60% |  |  |  |  |

Reference: patent publication US7045324B2, “Tocopherol associated protein and uses thereof” (Research Development Foundation, priority 2002, dated 2006)
